Our source for the EC50 and ED50 values is patent US20080200535A1, “Amine Compounds” (Asahi Kasei Pharma Corporation, priority 2006, published 2008).

For orientation: EC50 means the concentration that produces a half-maximal response. Higher therefore signals lower potency in that assay. The ED50 is the dose at which the effect has come halfway, by size or by number of responders.

In one assay the target is T1, S1P1 receptor (Homo sapiens, UniProt P21453).
T1 construct: expressed in transfected cells; membrane preparation
T1 sequence (P21453 whole entry): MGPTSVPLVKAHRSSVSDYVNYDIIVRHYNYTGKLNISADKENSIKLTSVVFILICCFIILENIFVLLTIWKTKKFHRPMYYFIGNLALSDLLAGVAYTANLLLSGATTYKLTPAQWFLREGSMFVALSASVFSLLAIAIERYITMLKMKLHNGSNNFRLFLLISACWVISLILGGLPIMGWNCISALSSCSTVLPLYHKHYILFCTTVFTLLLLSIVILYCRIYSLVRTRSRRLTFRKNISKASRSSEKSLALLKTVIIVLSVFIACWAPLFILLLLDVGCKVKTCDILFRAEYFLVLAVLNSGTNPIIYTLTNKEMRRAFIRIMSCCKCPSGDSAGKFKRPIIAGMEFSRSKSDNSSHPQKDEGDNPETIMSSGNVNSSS
In words: 35S-GTPγS binding assay using membrane preparation of CHO cell stably expressing S1P1 receptor. The following applies: agonist activity. In kind it is biochemical. Here is the method:
^35s-GTPγS binding assay using membrane preparation of CHO cell stably expressing S1P1 receptor
A G protein-GTPγS binding test associated with a ligand was performed by using a membrane preparation which was obtained from a CHO cell which stably overexpressed S1P1 receptor. In a 96 well-micro-titer dish, the produced membrane protein and a compound which was diluted with a solvent such as DMSO or sphingosine-1-phosphate in various concentrations was incubated in a solution containing 20 mM of Tris-Cl (pH7.5), 100 mM of NaCl, 10 mM of MgCl2, 5μM of GDP, 0.1% of BSA, and […] of ^35s-GTPγS (specific radioactivity, 1250 Ci mmol). The binding was performed for 1 or more hours at room temperature, and the membrane was harvested on a GF/B filter plate by using a Millipore's MultiScreen Separation System to end the binding. After the filter plate was dried for 30 or more minutes, 25 μL of MicroScint-20 was added to each well, and the binding was measured by using the TopCount.
For the agonist activity of compound, the value of a well which a solvent was added to was set to a control value and compared with an increment of an evaluation compound-added well, so that the increment of each concentration of the compound was obtained. EC50 value was calculated under the definition that the value is an agonist concentration required to provide 50% of the maximum increment thereof. […]
In general terms: Binding of GTPγS marks nucleotide exchange on a G protein.

The target of a further assay is T2, S1P3 receptor (Homo sapiens, UniProt Q99500).
T2 construct: expressed in transfected cells; host or cells: CHO cells, transient transfection; membrane protein
T2 sequence (Q99500 whole entry): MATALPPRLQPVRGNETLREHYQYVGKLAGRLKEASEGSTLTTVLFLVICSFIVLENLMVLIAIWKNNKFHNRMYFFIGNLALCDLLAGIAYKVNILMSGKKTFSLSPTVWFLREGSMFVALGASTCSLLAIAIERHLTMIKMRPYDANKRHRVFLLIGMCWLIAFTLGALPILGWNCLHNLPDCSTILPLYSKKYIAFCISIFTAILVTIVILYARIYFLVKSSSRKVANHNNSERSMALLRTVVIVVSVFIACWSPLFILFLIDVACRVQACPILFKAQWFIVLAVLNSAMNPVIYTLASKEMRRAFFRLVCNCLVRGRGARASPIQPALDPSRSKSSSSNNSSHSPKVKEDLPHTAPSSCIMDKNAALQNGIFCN
In words: 35S-GTPγS binding assay using membrane preparation of CHO cell temporarily expressing S1P3 receptor. The note with it: agonist activity, membrane of CHO cell temporarily transfected with S1P3 gene. It is filed as biochemical. Here is the method:
^35s-GTPγS binding assay using membrane preparation of CHO cell of temporarily expressing S1P3 receptor
A GTPγS binding test associated with S1P3 receptor was performed by using the same method as that of the GTPγS binding test associated with S1P1 receptor. In the test, a membrane protein which was produced from a CHO cell in which S1P3 gene was temporarily transfected was used.
For the agonist activity of compound, the value of a well which a solvent was added to was set to a control value and compared with an increment of an evaluation compound-added well, so that the increment of each concentration of the compound was obtained. EC50 value was calculated under the definition that the value is an agonist concentration required to provide 50% of the highest increment thereof.

The next assay relates to peripheral lymphocytes. In words: Evaluation of reduction in peripheral blood lymphocyte count. It is filed as in vivo. The following applies: 3 h; rat, oral; dose required to reduce the lymphocyte count by 50% in three hours from the administration. Here is the method:
Evaluation of Reduction in Peripheral Blood Lymphocyte count
A compound or a solvent was orally administered to a rat. When 3, 6, 24, 48, and 72 hours had elapsed since the administration of compound, blood was withdrawn from its tail vein. All the blood samples were analyzed hematologically. The total count of peripheral lymphocytes was measured by using an auto-analyzer (Sysmex 2000Xi). The effect of each compound to the total count of peripheral lymphocytes was evaluated by using three or more rats in one group. The reduction in lymphocyte count caused by the administration of compound was compared with that caused by the administration of solvent to a rat group. Namely, the average lymphocyte count of a solvent-administered group was set to 100%, and a control value (%) was calculated from the average lymphocyte count of a compound-administered group. An ED50 value, that is, a dosed amount of the compound required to reduce the lymphocyte count by 50% in three hours from the administration was calculated from the dosed amount of the compound and the control value (%).

The test system of a further assay is adjuvant arthritis rat. In words: Adjuvant-induced arthritis model. The following applies: 504 h, Lewis female rats, oral once daily for 21 days, dose required to suppress swelling of hind paw by 50% on the 21-th day. It is filed as in vivo. Here is the method: Adjuvant-Induced Arthritis Model
7-weeks old Lewis female rats are used for evaluation. The volume of a hind paw of a rat was measured. As an adjuvant, 500 μg/100 μL of M. tuberclulosis H37 RA (manufactured by Difco) is subcutaneously injected into the plantar of the left hind paw, so that an adjuvant arthritis rat is produced. A compound which is suspended in a 1% methylcellulose solution is forcibly oral-administered to the stomach by using an oral sonde one-time everyday for 21 days from the injection date of the adjuvant. The evaluation of arthritis is performed by measuring the volume of paw of each tested subject by using PLETHYSMOMETER (manufactured by UGO BASILE) and comparing the measured deta of a compound-administered group with those of a solvent-administered group. Swelling of the plantar portion of hind leg of the solvent-administered group was set to 100%, and a control value (%) was calculated from the swelling of the compound-administered group. An ED50 value, that is, a dosed amount of the compound required to suppress the swelling of the plantar portion of hind paw on the 21-th day from the administration date of the adjuvant by 50% was calculated from the dosed amount of the compound and the control value (%).

In the case of `O=C(O)[C@H]1CCC[C@H](NCc2ccc(OCc3cc(-c4ccccc4)c(C(F)(F)F)s3)cc2)C1` [Example 4], the EC50 is 34 nM at S1P1 receptor and 870 nM on S1P3 receptor.

Turning to `O=C(O)C1CC(NCc2ccc(OCc3cc(-c4ccccc4)c(C(F)(F)F)s3)cc2)C1` (stereo not shown) [Example 6], in the assay with peripheral lymphocytes, it took a dose of 5.1 mg/kg to reach the 50% effect level (ED50).

Consider `O=C(O)[C@H]1CC[C@H](NCc2ccc(OCc3cc(-c4ccccc4)c(C(F)(F)F)s3)cc2)C1` [Example 25], for which the EC50 at S1P1 receptor worked out at 4 nM; on S1P3 receptor, 117 nM.

`CC(C)Cc1ccc(-c2nc(-c3ccc(CNCCC(=O)O)cc3)no2)cc1.Cl` [Example 40]: the 50% effective dose (ED50) in the assay on peripheral lymphocytes worked out at 0.71 mg/kg. Moreover, the EC50 on S1P1 receptor amounted to 0.5 nM.

In the assay with peripheral lymphocytes, `CC(C)COc1ccc(-c2nc(-c3ccc(CNCCC(=O)O)cc3)no2)cc1C(F)(F)F.Cl` [Example 46] returned an ED50 of 2.1 mg/kg. In addition, a half-maximal response at S1P1 receptor (EC50) required 0.5 nM.

As for `Cc1cc(-c2nc(-c3ccc(CNCCC(=O)O)cc3)no2)ccc1-c1ccccc1.Cl` [Example 54], the results for the ED50 in the assay on peripheral lymphocytes and in the assay on adjuvant arthritis rat were 0.44 mg/kg and 0.33 mg/kg, respectively. The compound also had a concentration for a half-maximal effect (EC50) on S1P1 receptor of 0.34 nM.

Consider `Cl.O=C(O)CCNCc1ccc(-c2noc(C3CCC(c4ccccc4)CC3)n2)cc1` (stereo not shown) [Example 61], for which it took a dose of 0.53 mg/kg to reach the 50% effect level in the assay on peripheral lymphocytes (ED50). Moreover, a half-maximal effect on S1P1 receptor (EC50) was put at 1.5 nM.

As to `Cc1cc(-c2nc(-c3ccc(CNCCC(=O)O)cc3)no2)ccc1-c1ccccc1C#N.Cl` [Example 78], the 50% effect level in the assay on peripheral lymphocytes (ED50) was put at a dose of 0.37 mg/kg. The same compound registered an EC50 on S1P1 receptor of 0.26 nM.

Take `Cl.N#Cc1ccccc1-c1ccc(-c2nc(-c3ccc(CNCCC(=O)O)cc3)no2)cc1C#N` [Example 90]: in the assay with peripheral lymphocytes, the ED50 was determined as 4.1 mg/kg. On S1P1 receptor, this compound yielded an EC50 of 1.4 nM.

`Cl.N#Cc1ccccc1-c1ccc(-c2nc(-c3ccc(CNCCC(=O)O)cc3)no2)cc1C(F)(F)F` [Example 93] had an ED50 in the assay on peripheral lymphocytes of 0.64 mg/kg. For the same compound, the EC50 on S1P1 receptor came out at 0.48 nM.

In the assay on peripheral lymphocytes, `Cl.O=C(O)CCNCc1ccc(-c2noc(-c3ccc(-c4ccccc4)c(C(F)(F)F)c3)n2)cc1` [Example 94] yielded an ED50 of 0.087 mg/kg. On S1P1 receptor, the midpoint of the response, the EC50, lay at 0.25 nM.

`Cl.O=C(O)CCNCc1ccc(-c2noc(-c3ccc(CCC(F)(F)F)cc3)n2)cc1` [Example 104] returned an ED50 with peripheral lymphocytes of 0.7 mg/kg. Also, the concentration giving a half-maximal response (EC50) on S1P1 receptor came out at 2.1 nM.

In the case of `Cl.O=C(O)CCNCc1ccc(-c2noc(-c3ccc(-c4ccccc4)c(OC(F)(F)F)c3)n2)cc1` [Example 105], the ED50 with peripheral lymphocytes amounted to 0.084 mg/kg. On S1P1 receptor, this compound registered an EC50 of 0.49 nM.

`Cl.N#Cc1ccccc1-c1ccc(-c2nc(-c3ccc(CNCCC(=O)O)cc3)no2)cc1OC(F)(F)F` [Example 106] yielded an ED50 in the assay with peripheral lymphocytes of 0.5 mg/kg. This compound yielded an EC50 on S1P1 receptor of 1.2 nM.

Consider `Cc1cc(-c2nc(-c3ccc(CNCCC(=O)O)cc3)no2)ccc1-c1ccoc1.Cl` [Example 117], for which the ED50 in the assay on peripheral lymphocytes came out at 0.88 mg/kg. The EC50 on S1P1 receptor was determined as 0.07 nM.

`O=C(O)CCNCc1ccc(-c2noc(-c3ccc(-c4ccccc4F)s3)n2)cc1` [Example 120] yielded a concentration for a half-maximal effect (EC50) on S1P1 receptor of 3.6 nM.

Take `O=C(O)CCNCc1ccc(-c2noc(-c3cc(-c4ccccc4)c(C(F)(F)F)s3)n2)s1` [Example 124]: a half-maximal response on S1P1 receptor (EC50) required 0.2 nM.

Regarding `CC(C)Cc1ccc(-c2nc(-c3ccc(CNCCC(=O)O)s3)no2)cc1` [Example 128], the EC50 at S1P1 receptor turned out to be 16 nM.

Turning to `O=C(O)[C@H]1C[C@H](NCc2ccc(-c3noc(-c4cc(-c5ccccc5)c(C(F)(F)F)s4)n3)cc2)C1` [Example 130], the EC50 at S1P1 receptor was found to be 4.5 nM.

Regarding `Cc1cc(-c2nc(-c3ccc(CN[C@H]4C[C@H](C(=O)O)C4)cc3)no2)ccc1-c1ccccc1` [Example 134], a half-maximal effect on S1P1 receptor (EC50) was put at 1.2 nM.

`CC(C)Oc1ccc(-c2nc(-c3ccc(CN[C@H]4C[C@H](C(=O)O)C4)cc3)no2)cc1C(F)(F)F` [Example 135]: the ED50 in the assay on peripheral lymphocytes is 0.16 mg/kg; in the assay on adjuvant arthritis rat, 0.21 mg/kg. The same compound showed a concentration giving a half-maximal response (EC50) on S1P1 receptor of 0.72 nM.

`CC(C)COc1ccc(-c2nc(-c3ccc(CN[C@H]4C[C@H](C(=O)O)C4)cc3)no2)cc1C(F)(F)F` [Example 136] showed an EC50 on S1P1 receptor of 4 nM.

At S1P1 receptor, `O=C(O)[C@@H]1CC[C@@H](NCc2ccc(-c3noc(-c4cc(-c5ccccc5)c(C(F)(F)F)s4)n3)cc2)C1` [Example 138] had an EC50 of 21 nM.

As for `CC(C)Cc1ccc(-c2nc(-c3ccc(CN[C@@H]4CC[C@@H](C(=O)O)C4)cc3)no2)cc1` [Example 139], on S1P1 receptor, the EC50 was determined as 23 nM.

Compound `Cc1cc(-c2nc(-c3ccc(CN[C@@H]4CC[C@@H](C(=O)O)C4)cc3)no2)ccc1-c1ccccc1` [Example 142] returned an EC50 at S1P1 receptor of 6.7 nM.

Turning to `Cc1cc(CNCCC(=O)O)ccc1-c1noc(-c2ccc(CC(C)C)cc2)n1` [Example 144], on S1P1 receptor, a half-maximal response (EC50) required 0.27 nM.

In the assay on peripheral lymphocytes, `Cc1cc(CNCCC(=O)O)ccc1-c1noc(-c2ccc(-c3ccccc3C#N)c(C)c2)n1` [Example 145] yielded an ED50 of 0.46 mg/kg. In addition, on S1P1 receptor, a half-maximal response (EC50) required 0.2 nM.

Compound `Cc1cc(CN[C@H]2C[C@H](C(=O)O)C2)ccc1-c1noc(-c2ccc(CC(C)C)cc2)n1` [Example 146, (1R,3R)-3-(4-(5-(4-isobutylphenyl)-1,2,4,-oxadiazol-3-yl)-3-methylbenzylamino)cyclobutanecarboxylic acid] had an EC50 at S1P1 receptor of 4.5 nM.

In turn, `Cc1cc(CNC2CC(C(=O)O)C2)ccc1-c1noc(-c2ccc(-c3ccccc3C#N)c(C)c2)n1` (stereo not shown) [Example 147] gave an ED50 with peripheral lymphocytes of 0.72 mg/kg. Also, on S1P1 receptor, the EC50 turned out to be 2.4 nM.

On to `O=C(O)CCNCc1ccc(OCc2cc(-c3ccccc3)c(C(F)(F)F)s2)cc1Cl` [Example 149], for which the EC50 on S1P1 receptor was found to be 4.5 nM.

As to `COc1cc(OCc2cc(-c3ccccc3)c(C(F)(F)F)s2)ccc1CNCCC(=O)O` [Example 150], on S1P1 receptor, the EC50 amounted to 37 nM.

For `O=C(O)CCNCc1ccc(OCc2cc(-c3ccccc3)c(C(F)(F)F)s2)c(Br)c1` [Example 151], at S1P1 receptor, the midpoint of the response, the EC50, lay at 27 nM.

With `O=C(O)CCNCc1ccc(OCc2cc(-c3ccccc3)c(C(F)(F)F)s2)c(F)c1` [Example 152], the EC50 at S1P1 receptor is 6.4 nM.
